Results taken from ChEMBL document CHEMBL5321271, “Identification of Novel Quinolin-2(1H)-ones as Phosphodiesterase 1 Inhibitors for the Treatment of Inflammatory Bowel Disease” (J Med Chem, 2023).
Values belong to the compound of their own block, whether it stands above or below them. Active and inactive are the calls of the source. The rule behind the calls is not given here.

How the values were obtained:
[1] = biological target: Dual specificity calcium/calmodulin-dependent 3',5'-cyclic nucleotide phosphodiesterase 1C (Homo sapiens, UniProt Q14123); assay: Inhibition of PDE1C (147 to 531 residues) (unknown origin) using 3H-cGMP as substrate incubated for 15 mins by liquid scintillation counter analysis
[2] = biological target: High affinity cGMP-specific 3',5'-cyclic phosphodiesterase 9A (Homo sapiens, UniProt O76083); assay: Inhibition of PDE9A (181 to 506 residues) (unknown origin) using 3H-cGMP as substrate incubated for 15 mins by liquid scintillation counter analysis
[3] = Toxicity in DSS-induced inflammatory bowel disease C57BL/6 mouse model assessed as body weight change at 25 mg/kg,ip BID for 7 days; format: organism-based; settings: in vivo, 168 h, time 7 day
[4] = tested on: Mus musculus; assay: Anti-inflammatory bowel disease activity in DSS-induced inflammatory bowel disease C57BL/6 mouse model assessed as decrease in diarrhoea by measuring disease activity index score at 25 mg/kg,ip BID for 7 days; format: functional, organism-based; settings: time 7.0 day
[5] = tested on: Mus musculus; assay: Anti-inflammatory bowel disease activity in DSS-induced inflammatory bowel disease C57BL/6 mouse model assessed as decrease in fecal occult blood by measuring disease activity index score at 25 mg/kg,ip BID for 7 days by Hemo-occult test; format: functional, organism-based; settings: time 7.0 day
[6] = tested on: Mus musculus; assay: Anti-inflammatory bowel disease activity in DSS-induced inflammatory bowel disease C57BL/6 mouse model assessed as increase in colon length at 25 mg/kg,ip BID for 7 days by vernier calipers analysis; format: functional, organism-based; settings: time 7.0 day
[7] = tested on: Mus musculus; assay: Anti-inflammatory bowel disease activity in DSS-induced inflammatory bowel disease C57BL/6 mouse model assessed as decrease in body weight loss by measuring disease activity index score at 25 mg/kg,ip BID for 7 days; format: functional, organism-based; settings: time 7.0 day
[8] = biological target: cGMP-specific 3',5'-cyclic phosphodiesterase (Homo sapiens, UniProt O76074); assay: Inhibition of PDE5A1 (535 to 860 residues) (unknown origin) using 3H-cGMP as substrate incubated for 15 mins by liquid scintillation counter analysis
[9] = tested on: Mus musculus; assay: Anti-inflammatory bowel disease activity in DSS-induced inflammatory bowel disease C57BL/6 mouse model assessed as protection of colon crypt structures at 5 mg/kg,ip BID for 7 days by Hematoxylin and eosin staining based microscopy; format: functional, organism-based; settings: time 7.0 day
[10] = tested on: Mus musculus; assay: Anti-inflammatory bowel disease activity in DSS-induced inflammatory bowel disease C57BL/6 mouse model assessed as decrease in fecal occult blood by measuring disease activity index score at 5 mg/kg,ip BID for 7 days; format: functional, organism-based; settings: time 7.0 day
[11] = tested on: Mus musculus; assay: Anti-inflammatory bowel disease activity in DSS-induced inflammatory bowel disease C57BL/6 mouse model assessed as decrease in diarrhoea by measuring disease activity index score at 5 mg/kg,ip BID for 7 days; format: functional, organism-based; settings: time 7.0 day
[12] = tested on: Mus musculus; assay: Anti-inflammatory bowel disease activity in DSS-induced inflammatory bowel disease C57BL/6 mouse model assessed as increase in colon length at 5 mg/kg,ip BID for 7 days by vernier calipers analysis; format: functional, organism-based; settings: time 7.0 day
[13] = tested on: Mus musculus; assay: Anti-inflammatory bowel disease activity in DSS-induced inflammatory bowel disease C57BL/6 mouse model assessed as decrease in body weight loss by measuring disease activity index score at 5 mg/kg,ip BID for 7 days; format: functional, organism-based; settings: time 7.0 day
[14] = biological target: cAMP and cAMP-inhibited cGMP 3',5'-cyclic phosphodiesterase 10A (Homo sapiens, UniProt Q9Y233); assay: Inhibition of PDE10A (449 to 770 residues) (unknown origin) using 3H-cAMP as substrate incubated for 15 mins by liquid scintillation counter analysis
[15] = tested on: RAW264.7; assay: Anti-inflammatory activity in mouse RAW264.7 cells assessed as reduction in LPS-induced iNOS mRNA expression at 5 to 10 uM incubated for 24 hrs by qPCR analysis; format: functional, cell-based; settings: dose 5-10 µM
[16] = tested on: RAW264.7; assay: Anti-inflammatory activity in mouse RAW264.7 cells assessed as reduction in LPS-induced NO release at 5 to 10 uM incubated for 24 hrs by Griess method; format: functional, cell-based; settings: dose 5-10 µM
[17] = tested on: Mus musculus; assay: Anti-inflammatory bowel disease activity in DSS-induced inflammatory bowel disease C57BL/6 mouse model assessed as reduction in histological inflammation in colon at 5 mg/kg,ip BID for 7 days by Hematoxylin and eosin staining based microscopy; format: functional, organism-based; settings: time 7.0 day
[18] = tested on: RAW264.7; assay: Anti-inflammatory activity in mouse RAW264.7 cells assessed as reduction in LPS-induced IL-1beta mRNA expression at 5 to 10 uM incubated for 24 hrs by qPCR analysis; format: functional, cell-based; settings: dose 5-10 µM
[19] = biological target: High affinity 3',5'-cyclic-AMP phosphodiesterase 7A (Homo sapiens, UniProt Q13946); assay: Inhibition of PDE7A (130 to 482 residues) (unknown origin) using 3H-cAMP as substrate incubated for 15 mins by liquid scintillation counter analysis
[20] = biological target: cGMP-inhibited 3',5'-cyclic phosphodiesterase 3A (Homo sapiens, UniProt Q14432); assay: Inhibition of PDE3A (679 to 1087 residues) (unknown origin) using 3H-cAMP as substrate incubated for 15 mins by liquid scintillation counter analysis
[21] = biological target: High affinity cAMP-specific and IBMX-insensitive 3',5'-cyclic phosphodiesterase 8A (Homo sapiens, UniProt O60658); assay: Inhibition of PDE8A (480 to 820 residues) (unknown origin) using 3H-cAMP as substrate incubated for 15 mins by liquid scintillation counter analysis
[22] = biological target: cGMP-dependent 3',5'-cyclic phosphodiesterase (Homo sapiens, UniProt O00408); assay: Inhibition of PDE2A (580 to 919 residues) (unknown origin) using 3H-cGMP as substrate incubated for 15 mins by liquid scintillation counter analysis
[23] = tested on: RAW264.7; assay: Anti-inflammatory activity in mouse RAW264.7 cells assessed as reduction in LPS-induced IL-1alpha mRNA expression at 5 to 10 uM incubated for 24 hrs by qPCR analysis; format: functional, cell-based; settings: dose 5-10 µM
[24] = Metabolic stability in rat liver microsomes assessed as half life
[25] = biological target: 3',5'-cyclic-AMP phosphodiesterase 4D (Homo sapiens, UniProt Q08499); assay: Inhibition of PDE4D (86 to 413 residues) (unknown origin) using 3H-cAMP as substrate incubated for 15 mins by liquid scintillation counter analysis
[26] = tested on: RAW264.7; assay: Anti-inflammatory activity in mouse RAW264.7 cells assessed as reduction in LPS-induced IL-6 mRNA expression at 5 to 10 uM incubated for 24 hrs by qPCR analysis; format: functional, cell-based; settings: dose 5-10 µM
[27] = tested on: RAW264.7; assay: Anti-inflammatory activity in mouse RAW264.7 cells assessed as reduction in LPS-induced TNF-alpha mRNA expression at 5 to 10 uM incubated for 24 hrs by qPCR analysis; format: functional, cell-based; settings: dose 5-10 µM

Sequence of High affinity cGMP-specific 3',5'-cyclic phosphodiesterase 9A (O76083 whole entry, the tested form may be a part): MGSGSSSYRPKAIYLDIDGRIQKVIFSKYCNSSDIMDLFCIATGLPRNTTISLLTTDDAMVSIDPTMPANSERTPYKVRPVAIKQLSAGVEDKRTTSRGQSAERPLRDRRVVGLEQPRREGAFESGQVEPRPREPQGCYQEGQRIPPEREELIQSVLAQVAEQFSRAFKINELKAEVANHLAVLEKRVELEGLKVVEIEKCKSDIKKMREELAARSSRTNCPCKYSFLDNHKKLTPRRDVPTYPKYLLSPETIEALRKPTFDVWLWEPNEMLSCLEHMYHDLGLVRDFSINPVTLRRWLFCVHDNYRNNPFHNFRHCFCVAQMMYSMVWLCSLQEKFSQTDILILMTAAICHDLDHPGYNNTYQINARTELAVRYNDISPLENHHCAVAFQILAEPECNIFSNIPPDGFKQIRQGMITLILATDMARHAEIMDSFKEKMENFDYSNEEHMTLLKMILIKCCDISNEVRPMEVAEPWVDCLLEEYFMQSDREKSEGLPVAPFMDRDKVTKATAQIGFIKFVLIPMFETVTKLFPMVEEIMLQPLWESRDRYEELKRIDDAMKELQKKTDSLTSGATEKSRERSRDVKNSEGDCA
Sequence of Dual specificity calcium/calmodulin-dependent 3',5'-cyclic nucleotide phosphodiesterase 1C (Q14123 whole entry, the tested form may be a part): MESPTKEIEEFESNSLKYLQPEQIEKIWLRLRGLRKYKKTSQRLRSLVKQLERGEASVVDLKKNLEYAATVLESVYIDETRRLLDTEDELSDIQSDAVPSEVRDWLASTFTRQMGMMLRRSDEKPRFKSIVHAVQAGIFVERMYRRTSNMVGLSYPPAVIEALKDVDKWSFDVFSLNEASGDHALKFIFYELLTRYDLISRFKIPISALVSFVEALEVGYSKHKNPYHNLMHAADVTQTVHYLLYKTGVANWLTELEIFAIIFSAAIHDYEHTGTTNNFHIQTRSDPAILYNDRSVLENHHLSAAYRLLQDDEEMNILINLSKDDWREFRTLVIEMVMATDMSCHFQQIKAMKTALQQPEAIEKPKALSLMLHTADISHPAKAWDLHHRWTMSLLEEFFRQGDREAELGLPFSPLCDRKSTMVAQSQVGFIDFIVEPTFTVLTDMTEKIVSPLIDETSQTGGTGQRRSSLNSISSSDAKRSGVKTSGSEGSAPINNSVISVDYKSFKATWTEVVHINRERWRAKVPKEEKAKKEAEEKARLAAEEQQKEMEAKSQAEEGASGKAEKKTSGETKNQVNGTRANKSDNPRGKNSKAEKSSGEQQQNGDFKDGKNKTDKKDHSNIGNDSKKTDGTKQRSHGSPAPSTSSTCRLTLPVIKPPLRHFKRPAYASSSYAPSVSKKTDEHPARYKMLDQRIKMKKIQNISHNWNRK
Sequence of High affinity 3',5'-cyclic-AMP phosphodiesterase 7A (Q13946 whole entry, the tested form may be a part): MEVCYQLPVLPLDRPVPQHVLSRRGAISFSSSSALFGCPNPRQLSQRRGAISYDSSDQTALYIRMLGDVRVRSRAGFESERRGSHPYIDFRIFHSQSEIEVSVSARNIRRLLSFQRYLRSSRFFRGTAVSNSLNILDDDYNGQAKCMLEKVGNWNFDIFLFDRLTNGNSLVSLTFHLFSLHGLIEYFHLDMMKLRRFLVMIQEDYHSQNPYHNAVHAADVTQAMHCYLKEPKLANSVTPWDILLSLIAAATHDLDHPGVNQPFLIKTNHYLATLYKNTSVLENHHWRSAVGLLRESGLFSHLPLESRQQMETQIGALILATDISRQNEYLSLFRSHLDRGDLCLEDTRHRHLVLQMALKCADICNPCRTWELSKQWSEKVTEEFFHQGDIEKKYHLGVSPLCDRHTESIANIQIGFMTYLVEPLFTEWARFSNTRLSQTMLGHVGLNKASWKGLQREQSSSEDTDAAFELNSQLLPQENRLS
Sequence of cGMP-dependent 3',5'-cyclic phosphodiesterase (O00408 whole entry, the tested form may be a part): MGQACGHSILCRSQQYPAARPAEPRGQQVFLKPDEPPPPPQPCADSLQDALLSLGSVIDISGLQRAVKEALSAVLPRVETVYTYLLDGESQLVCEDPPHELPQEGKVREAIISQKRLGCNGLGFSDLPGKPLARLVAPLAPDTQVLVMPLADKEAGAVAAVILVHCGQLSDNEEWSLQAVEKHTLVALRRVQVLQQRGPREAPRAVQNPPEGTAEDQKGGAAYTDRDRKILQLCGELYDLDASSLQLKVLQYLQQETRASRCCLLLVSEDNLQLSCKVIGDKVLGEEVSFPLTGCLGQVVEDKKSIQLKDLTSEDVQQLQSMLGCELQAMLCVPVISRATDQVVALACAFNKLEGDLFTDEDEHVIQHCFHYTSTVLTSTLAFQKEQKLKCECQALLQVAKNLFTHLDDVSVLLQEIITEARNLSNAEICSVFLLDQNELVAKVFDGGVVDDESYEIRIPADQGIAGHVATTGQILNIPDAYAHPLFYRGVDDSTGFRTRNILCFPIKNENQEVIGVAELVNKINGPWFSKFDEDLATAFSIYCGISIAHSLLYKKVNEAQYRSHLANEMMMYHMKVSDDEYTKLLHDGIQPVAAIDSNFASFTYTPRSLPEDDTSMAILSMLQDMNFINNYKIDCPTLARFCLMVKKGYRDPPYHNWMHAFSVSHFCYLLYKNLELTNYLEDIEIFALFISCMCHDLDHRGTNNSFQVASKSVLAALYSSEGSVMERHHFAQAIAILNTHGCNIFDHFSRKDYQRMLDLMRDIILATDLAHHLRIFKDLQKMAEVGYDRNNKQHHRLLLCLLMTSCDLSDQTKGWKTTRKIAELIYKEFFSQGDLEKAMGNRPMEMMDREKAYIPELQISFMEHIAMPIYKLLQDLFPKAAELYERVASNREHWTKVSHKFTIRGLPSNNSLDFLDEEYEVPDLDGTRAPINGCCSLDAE
Sequence of cAMP and cAMP-inhibited cGMP 3',5'-cyclic phosphodiesterase 10A (Q9Y233 whole entry, the tested form may be a part): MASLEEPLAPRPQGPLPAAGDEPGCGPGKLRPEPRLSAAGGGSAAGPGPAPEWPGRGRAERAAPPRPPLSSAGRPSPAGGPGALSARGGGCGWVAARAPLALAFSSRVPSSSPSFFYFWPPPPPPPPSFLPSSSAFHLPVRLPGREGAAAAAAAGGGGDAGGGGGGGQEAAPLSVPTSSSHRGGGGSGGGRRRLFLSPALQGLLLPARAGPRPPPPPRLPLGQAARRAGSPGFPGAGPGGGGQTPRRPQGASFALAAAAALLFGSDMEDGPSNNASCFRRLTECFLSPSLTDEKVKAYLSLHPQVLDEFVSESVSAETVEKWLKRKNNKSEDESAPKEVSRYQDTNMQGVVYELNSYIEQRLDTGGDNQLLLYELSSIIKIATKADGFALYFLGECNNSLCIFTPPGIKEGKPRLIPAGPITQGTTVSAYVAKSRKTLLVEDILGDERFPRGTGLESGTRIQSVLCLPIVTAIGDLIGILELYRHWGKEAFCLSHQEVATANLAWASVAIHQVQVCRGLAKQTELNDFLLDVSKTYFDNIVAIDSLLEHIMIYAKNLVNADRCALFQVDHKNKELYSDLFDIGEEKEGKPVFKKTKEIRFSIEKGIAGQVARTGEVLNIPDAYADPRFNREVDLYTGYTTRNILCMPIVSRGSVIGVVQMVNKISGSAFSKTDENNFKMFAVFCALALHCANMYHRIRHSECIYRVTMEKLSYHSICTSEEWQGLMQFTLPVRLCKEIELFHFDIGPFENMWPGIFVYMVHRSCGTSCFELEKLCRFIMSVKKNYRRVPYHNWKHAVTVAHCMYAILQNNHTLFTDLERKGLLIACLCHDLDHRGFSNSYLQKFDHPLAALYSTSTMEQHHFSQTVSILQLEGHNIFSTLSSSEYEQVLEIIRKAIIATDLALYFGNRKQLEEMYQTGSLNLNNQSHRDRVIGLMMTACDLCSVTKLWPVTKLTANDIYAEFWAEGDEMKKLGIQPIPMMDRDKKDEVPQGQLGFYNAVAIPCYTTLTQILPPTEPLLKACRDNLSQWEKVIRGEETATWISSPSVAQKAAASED
Sequence of cGMP-inhibited 3',5'-cyclic phosphodiesterase 3A (Q14432 whole entry, the tested form may be a part): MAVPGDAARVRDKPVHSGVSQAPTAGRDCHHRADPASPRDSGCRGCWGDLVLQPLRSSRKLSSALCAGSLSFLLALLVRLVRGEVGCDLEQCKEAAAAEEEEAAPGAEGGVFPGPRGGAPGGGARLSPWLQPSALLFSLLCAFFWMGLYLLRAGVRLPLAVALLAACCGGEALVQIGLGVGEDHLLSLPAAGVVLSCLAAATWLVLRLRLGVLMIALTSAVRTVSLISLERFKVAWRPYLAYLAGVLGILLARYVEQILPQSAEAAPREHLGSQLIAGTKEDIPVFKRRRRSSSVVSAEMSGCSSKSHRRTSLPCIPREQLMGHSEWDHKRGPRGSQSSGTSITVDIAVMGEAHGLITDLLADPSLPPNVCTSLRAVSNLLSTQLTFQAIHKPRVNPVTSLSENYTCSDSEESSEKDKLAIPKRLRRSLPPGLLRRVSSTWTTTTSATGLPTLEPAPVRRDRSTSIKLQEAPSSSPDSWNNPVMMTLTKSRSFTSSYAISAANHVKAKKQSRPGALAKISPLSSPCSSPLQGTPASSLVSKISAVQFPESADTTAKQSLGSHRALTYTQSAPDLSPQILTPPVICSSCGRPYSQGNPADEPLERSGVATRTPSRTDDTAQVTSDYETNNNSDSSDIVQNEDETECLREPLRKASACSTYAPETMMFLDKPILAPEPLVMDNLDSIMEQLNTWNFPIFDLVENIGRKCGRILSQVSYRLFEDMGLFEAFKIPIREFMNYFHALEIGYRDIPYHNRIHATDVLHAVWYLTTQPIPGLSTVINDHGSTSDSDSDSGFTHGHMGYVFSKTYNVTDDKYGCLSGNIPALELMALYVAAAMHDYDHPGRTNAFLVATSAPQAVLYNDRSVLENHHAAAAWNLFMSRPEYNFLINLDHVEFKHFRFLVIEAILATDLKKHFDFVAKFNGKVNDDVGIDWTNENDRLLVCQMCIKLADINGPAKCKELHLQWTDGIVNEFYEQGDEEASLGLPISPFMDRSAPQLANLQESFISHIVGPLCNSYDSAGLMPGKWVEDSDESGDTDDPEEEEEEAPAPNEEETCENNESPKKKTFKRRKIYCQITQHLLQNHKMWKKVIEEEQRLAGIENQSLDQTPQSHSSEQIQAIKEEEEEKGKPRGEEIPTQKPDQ

Compound: CC(Nc1ccc2c(C3CC3)c(C#N)c(=O)n(Cc3ccccc3)c2c1)c1ccccn1 (configuration not stated)
IC50 [1]: 0.218 µM

Compound: Cc1ccc(-c2c(C#N)c(=O)n(Cc3ccccc3)c3cc(NC(C)c4ccccn4)ccc23)cc1 (configuration not stated)
IC50 [1]: 0.015 µM

Compound: N#Cc1c(C2CCCC2)c2ccc(NCC3CCOCC3)cc2n(CC2CCCC2)c1=O
IC50 [1]: > 1 µM

Compound: CC(C)c1c(C#N)c(=O)n(Cc2ccccc2)c2cc(NC(C)c3ccccn3)ccc12 (configuration not stated)
IC50 [1]: 0.022 µM

Compound: Cc1ccc(-c2c(C#N)c(=O)n(CC3CCCC3)c3cc(NC(C)c4ccccn4)ccc23)cc1 (configuration not stated)
IC50 [1]: 0.025 µM

Compound: Cc1ccc(-c2c(C#N)c(=O)n(Cc3ccccc3)c3cc(NC(C)c4ccccc4)ccc23)cc1 (configuration not stated)
IC50 [1]: 0.055 µM

Compound: OCCN(CCO)c1nc(N2CCCCC2)c2nc(N(CCO)CCO)nc(N3CCCCC3)c2n1 [DIPYRIDAMOLE]
Activity [3]: Toxic | Activity [4]: Active | Activity [5]: Active | Activity [6]: Active | Activity [7]: Active

Compound: C[C@H](Nc1ccc2c(C3CCCC3)c(C#N)c(=O)n(CC3CCCC3)c2c1)c1ccccn1
IC50 [1]: 0.016 µM

Compound: CC(Nc1ccc2c(C3CCCC3)c(C#N)c(=O)n(CC3CCCC3)c2c1)c1ccccn1 (configuration not stated)
IC50 [1]: 0.019 µM

Compound: N#Cc1c(C2CCCC2)c2ccc(NCc3ccc(F)cn3)cc2n(CC2CCCC2)c1=O
IC50 [8]: 2.18 µM | Activity [9]: Active | Activity [10]: Active | Activity [11]: Active | Activity [12]: Active | Activity [13]: Active | IC50 [14]: 3.03 µM | Activity [15]: Dose-Dependent Effect | Activity [16]: Dose-Dependent Effect | Activity [17]: Active | Activity [18]: Dose-Dependent Effect | IC50 [19]: 2.3 µM | IC50 [20]: > 10 µM | IC50 [21]: > 10 µM | IC50 [22]: > 10 µM | Activity [23]: Dose-Dependent Effect | IC50 [1]: 0.015 µM | half-life [24]: 1.6 min | IC50 [25]: 0.61 µM | Activity [26]: Dose-Dependent Effect | Activity [27]: Dose-Dependent Effect | IC50 [2]: > 10 µM

The remaining lines, values ahead:

IC50 [1]: > 1 µM
Compound: Cc1ccc(-c2c(C#N)c(=O)n(Cc3ccccc3)c3c(NC(C)c4ccccn4)cccc23)cc1 (configuration not stated)

IC50 [1]: 0.048 µM | IC50 [2]: 5.83 µM
Compound: Cc1ccc(-c2c(C#N)c(=O)n(Cc3ccccc3)c3ccccc23)cc1

IC50 [1]: 0.083 µM
Compound: CC(Nc1ccc2c(C(C)(C)C)c(C#N)c(=O)n(Cc3ccccc3)c2c1)c1ccccn1 (configuration not stated)

IC50 [1]: > 1 µM
Compound: CCCCNc1ccc2c(-c3ccc(C)cc3)c(C#N)c(=O)n(Cc3ccccc3)c2c1

IC50 [1]: > 1 µM
Compound: CCCCCn1c(=O)c(C#N)c(-c2ccc(C)cc2)c2ccc(NC(C)c3ccccn3)cc21 (configuration not stated)

IC50 [1]: > 1 µM
Compound: Cc1ccc(-c2c(C#N)c(=O)n(Cc3ccncc3)c3cc(NC(C)c4ccccn4)ccc23)cc1 (configuration not stated)

IC50 [1]: 0.45 µM | IC50 [2]: 0.0089 µM
Compound: Cc1ccc(-c2c(C#N)c(=O)[nH]c3ccccc23)cc1

IC50 [1]: 0.02 µM
Compound: CC(Nc1ccc2c(C3CCCC3)c(C#N)c(=O)n(Cc3ccccc3)c2c1)c1ccccn1 (configuration not stated)

IC50 [1]: 0.024 µM
Compound: Cc1ccc(-c2c(C#N)c(=O)n(Cc3ccccc3)c3ccc(NC(C)c4ccccn4)cc23)cc1 (configuration not stated)

IC50 [1]: 0.038 µM
Compound: C[C@@H](Nc1ccc2c(C3CCCC3)c(C#N)c(=O)n(CC3CCCC3)c2c1)c1ccccn1
